Entries after “also recorded” stand apart in the source; their conditions may differ. Where two headings read alike, the source gives them in different places.
Columns and labels:
[1] = system: mouse epiblast stem cell-derived OPCs; test: In vitro OPC differentiation assay (percentage of MBP+ oligodendrocytes, high-content imaging); type: cell-based; settings: for formation of MBP+ oligodendrocytes in combination with ketoconazole: co-treatment with ketoconazole 2.5 μM
Description: To rigorously assess effects of small molecule and genetic treatments on OPCs, all treatments were assayed in two batches of epiblast stem cell-derived OPCs, and key results were confirmed using mouse primary OPCs. OPCs were generated from two separate EpiSC lines, EpiSC5 (giving rise to OPC-5 OPCs) and 12901 (giving rise to OPC-1 OPCs). EpiSC-derived OPCs were obtained using in vitro differentiation protocols and culture conditions described previously. To ensure uniformity throughout all in vitro screening experiments, EpiSC-derived OPCs were sorted to purity by fluorescence activated cell sorting at passage five with conjugated CD 140a-APC (eBioscience, 17-1401; 1:80) and NG2-AF488 (Millipore, AB[…]; 1:100) antibodies. Sorted batches of OPCs were expanded and frozen down in aliquots. OPCs were thawed into growth conditions for one passage before use in further assays. Cultures were regularly tested and shown to be mycoplasma free. EpiSC-derived OPCs were grown and expanded in poly-ornithine (PO) and laminin-coated flasks with growth medium (DMEM/F12 supplemented with N2-MAX (R&D Systems), B-27 (ThermoFisher), GlutaMax (Gibco), FGF2 ([…], R&D systems, 233-FB-025) and PDGF-AA ([…], R&D systems, 233-AA-050) before harvesting for plating. The cells were seeded onto poly-D-[…]-well CellCarrier plates (PerkinElmer) coated with laminin (Sigma, L2020; 15 μg/ml) using multi-channel pipet. For the experiment, 800,000 cells/mL stock in differentiation medium (DMEM/F12 supplemented with N2-MAX and B-27) was prepared and stored on ice for 2 h. Then, 40,000 cells were seeded per well in differentiation medium and allowed to attach for 30 min before addition of drug. For dose-response testing of all molecules except sterols, a 1000× compound stock in dimethyl sulphoxide (DMSO) was added to assay plates with 0.1 μL solid pin multi-blot replicators (V & P Scientific; VP 409), resulting in a final primary screening concentration of 1×. Sterols were added to cells as an ethanol solution (0.2% final ethanol concentration). Positive control wells (ketoconazole, 2.5 μM) and DMSO vehicle controls were included in each assay plate. Cells were incubated under standard conditions (37° C., 5% CO2) for 3 days and fixed with 4% paraformaldehyde (PFA) in phosphate buffered saline (PBS) for 20 min. Fixed plates were washed with PBS (200 μL per well) twice, permeabilized with 0.1% Triton X-100 and blocked with 10% donkey serum (v/v) in PBS for 40 min. Then, cells were labelled with MBP antibodies (Abcam, ab7349; 1:200) for 16 h at 4° C. followed by detection with Alexa Fluor conjugated secondary antibodies (1:500) for 45 min. Nuclei were visualized by DAPI staining (Sigma; 1 μg/ml). During washing steps, PBS was added using a multi-channel pipet and aspiration was performed using Biotek EL406 washer dispenser (Biotek) equipped with a 96-well aspiration manifold. Plates were imaged on the Operetta High Content Imaging and Analysis system (PerkinElmer) and a set of 6 fields captured from each well resulting in an average of 1200 cells being scored per well. Analysis (PerkinElmer Harmony and Columbus software) began by identifying intact nuclei stained by DAPI; that is, those traced nuclei that were larger than 300 μm^2 in surface area. Each traced nucleus region was then expanded by 50% and cross-referenced with the […] (MBP) stain to identify oligodendrocyte nuclei, and from this the percentage of oligodendrocytes was calculated. In some experiments, the total process length of MBP^+ oligodendrocytes was calculated as previously described.

[2] = system: sterol levels in OPCs (cholesterol biosynthesis pathway); test: GC/MS-based sterol profiling in OPCs; type: cell-based, mouse
[3] = biological target: T1, rat CYP51 (Rattus norvegicus, UniProt Q64654); test: biochemical
T1 sequence (Q64654 1-503): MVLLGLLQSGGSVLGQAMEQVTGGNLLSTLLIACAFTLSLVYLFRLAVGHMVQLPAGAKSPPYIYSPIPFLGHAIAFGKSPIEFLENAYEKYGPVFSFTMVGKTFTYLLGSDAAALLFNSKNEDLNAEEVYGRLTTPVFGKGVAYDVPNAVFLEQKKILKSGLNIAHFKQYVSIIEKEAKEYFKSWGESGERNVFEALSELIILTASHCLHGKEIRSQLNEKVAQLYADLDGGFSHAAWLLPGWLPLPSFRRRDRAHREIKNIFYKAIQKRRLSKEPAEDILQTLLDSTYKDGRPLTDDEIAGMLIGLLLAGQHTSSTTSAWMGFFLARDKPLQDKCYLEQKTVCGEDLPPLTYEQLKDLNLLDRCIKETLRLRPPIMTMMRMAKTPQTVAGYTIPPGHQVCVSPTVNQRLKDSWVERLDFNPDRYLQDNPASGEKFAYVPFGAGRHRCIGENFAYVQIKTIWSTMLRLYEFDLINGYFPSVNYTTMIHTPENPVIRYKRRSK

[4] = biological target: T2, EBP (Mus musculus, UniProt P70245); test: EBP enzymatic assay (GC/MS); type: biochemical; settings: small molecules 10 μM, zymostenol 25 μM, 2 h
T2 construct: active EBP was obtained from mouse microsomes; from tissue
T2 sequence (P70245 1-230): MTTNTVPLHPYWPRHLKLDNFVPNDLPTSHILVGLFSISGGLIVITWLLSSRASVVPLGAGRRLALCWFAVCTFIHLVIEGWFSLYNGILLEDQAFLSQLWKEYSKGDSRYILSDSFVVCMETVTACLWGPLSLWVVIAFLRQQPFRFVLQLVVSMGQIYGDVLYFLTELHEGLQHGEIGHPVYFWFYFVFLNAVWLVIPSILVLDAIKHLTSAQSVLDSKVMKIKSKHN

[5] = biological target: T1, rat CYP51; settings: rat CYP51 enzymatic activity
[6] = 72 h, differentiation-permissive conditions

Compound: CC(C)CCC[C@@H](C)[C@H]1CC[C@H]2C3=C(CC[C@]12C)[C@@]1(C)CC[C@H](O)C[C@@H]1CC3 [zymostenol, Zymostenol]
- formation of MBP+ oligodendrocytes from OPCs [1, 6]: enhanced the formation of MBP^+ oligodendrocytes; also recorded: enhanced oligodendrocyte formation

Compound: CC(C)=CCC[C@@H](C)[C@H]1CC=C2C3=C(CC[C@@]21C)[C@@]1(C)CC[C@H](O)C(C)(C)[C@@H]1CC3 [FF-MAS, 4,4-dimethyl-5α-cholesta-8,14,24-trien-3β-ol]
- formation of MBP+ oligodendrocytes from OPCs [1, 6]: enhanced oligodendrocyte formation; also recorded: maximally potent enhancers of oligodendrocyte formation among the 8,9-unsaturated sterols tested

Compound: C[C@]12CC[C@@H]3c4ccc(O)cc4C[C@@H](CCCCCCCCC[S+]([O-])CCCC(F)(F)C(F)(F)F)[C@H]3[C@@H]1CC[C@@H]2O (some centres unmarked) [fulvestrant, Fulvestrant]
- sterol profile in OPCs at the screening dose (enzyme targeted) ([2]; 2 μM, 24 h): targeted CYP51

Compound: CC(C)CCC[C@@H](C)[C@H]1CC=C2C3=C(CC[C@@]21C)[C@@]1(C)CC[C@H](O)C[C@@H]1CC3 [14-dehydrozymostenol, cholesta-8,14-dien-j-ol]
- formation of MBP+ oligodendrocytes from OPCs [1, 6]: enhanced the formation of MBP^+ oligodendrocytes

Compound: N[C@@H](Cc1cc(I)c(Oc2ccc(O)c(I)c2)c(I)c1)C(=O)O [liothyronine, Liothyronine]
- formation of oligodendrocytes in combination with liothyronine ([1]; liothyronine 3 μM combined with sterol-modulating treatments, 72 h): additive effects on oligodendrocyte formation
- accumulation of sterol intermediates in OPCs (enzyme inhibition in OPCs, e.g. EBP) [2]: minimal effects on sterol levels

Compound: methyl-β-cyclodextrin
- formation of MBP+ oligodendrocytes from OPCs [1, 6]: had no effect on oligodendrocyte formation
- cholesterol levels in OPCs ([2]; methyl β-cyclodextrin 1 mM for 30 min): reductions in cholesterol levels comparable to pathway inhibitor treatment

Compound: CC(C)CCC[C@@H](C)[C@H]1CC=C2C3=C(CC[C@@]21C)[C@@]1(C)CC[C@H](O)C(C)(C)[C@@H]1CC3 [MAS-412]
- formation of MBP+ oligodendrocytes from OPCs [1, 6]: enhanced oligodendrocyte formation; also recorded: optimal efficacy and potency among all canonical cholesterol biosynthesis intermediates evaluated

Compound: Clc1ccccc1C(c1ccccc1)(c1ccccc1)n1ccnc1 [clotrimazole, Clotrimazole]
- IC50 [3]: 300 to 700 nM

Compound: C=C(c1ccc(C(=O)O)cc1)c1cc2c(cc1C)C(C)(C)CCC2(C)C [bexarotene, Bexarotene]
- accumulation of sterol intermediates in OPCs (enzyme inhibition in OPCs, e.g. EBP) ([2]; 24 h treatment): minimal effects on sterol levels

Compound: OCCOCCN1CCN(C(c2ccccc2)c2ccc(Cl)cc2)CC1 (centres unmarked) [hydroxyzine, Hydroxyzine]
- inhibition of EBP enzymatic activity [4]: directly inhibiting EBP enzymatic activity

Compound: CC(C)CCC[C@@H](C)[C@H]1CC[C@H]2C3=C(CC[C@]12C)[C@@]1(C)CC[C@H](O)CC1=CC3 [8,9-dehydrocholesterol]
- formation of MBP+ oligodendrocytes from OPCs [1, 6]: robustly enhanced oligodendrocyte formation

Compound: CC(=O)N1CCN(c2ccc(OC[C@@H]3CO[C@](Cn4ccnc4)(c4ccc(Cl)cc4Cl)O3)cc2)CC1 (stereo in doubt) [R-trans-Ketoconazole]
- inhibition of mammalian CYP51 in vitro [5]: strikingly less effective at inhibiting mammalian CYP51

Compound: OCCOc1ccc(/C(=C(/CCCl)c2ccccc2)c2ccccc2)cc1 [ospemifine, Ospemifene]
- formation of MBP+ oligodendrocytes from OPCs [1]: had no effect on OPC differentiation
- accumulation of sterol intermediates in OPCs (enzyme inhibition in OPCs, e.g. EBP) [2]: did not inhibit EBP

Compound: CC(C)=CCC[C@@H](C)[C@H]1CC[C@H]2C3=C(CC[C@]12C)[C@@]1(C)CC[C@H](O)C(C)(C)C1CC3 (some centres unmarked) [T-MAS]
- formation of MBP+ oligodendrocytes from OPCs [1, 6]: enhanced oligodendrocyte formation

Compound: CC(C)CCC[C@@H](C)[C@H]1CC[C@H]2C3=C(CC[C@]12C)[C@@]1(C)CC[C@H](O)C(C)(C)[C@@H]1CC3 [MAS-414]
- formation of MBP+ oligodendrocytes from OPCs [1, 6]: enhanced oligodendrocyte formation; also recorded: optimal efficacy and potency among all canonical cholesterol biosynthesis intermediates evaluated

Compound: Cc1cc(C)c(CNC(=O)c2cc(-c3ccc(CN4CCOCC4)cc3)cc3c2cnn3C2CCCC2)c(=O)[nH]1 [EPZ005687]
- inhibition of EBP enzymatic activity [4]: directly inhibiting EBP enzymatic activity
- formation of MBP+ oligodendrocytes from OPCs [1, 6]: robustly enhanced oligodendrocyte formation
- accumulation of sterol intermediates in OPCs (enzyme inhibition in OPCs, e.g. EBP) ([2]; 24 h treatment): uniquely caused accumulation of zymosterol and zymostenol in OPCs

Compound: CN1[C@@H]2CC[C@H]1C[C@@H](OC(c1ccccc1)c1ccccc1)C2 [benztropine, Benztropine]
- inhibition of EBP enzymatic activity [4]: clear inhibition
- formation of MBP+ oligodendrocytes in combination with ketoconazole ([1]; 72 h): did not enhance differentiation above levels seen for ketoconazole alone
- accumulation of sterol intermediates in OPCs (enzyme inhibition in OPCs, e.g. EBP) ([2]; 24 h treatment): induced accumulation of zymostenol and zymosterol and decreased basal sterol levels

Compound: CC(C)=CCC[C@@H](C)[C@H]1CC[C@@]2(C)C3=C(CC[C@]12C)[C@@]1(C)CC[C@H](O)C(C)(C)[C@@H]1CC3 [lanosterol, Lanosterol]
- formation of MBP+ oligodendrocytes from OPCs [1, 6]: enhanced formation of MBP^+ oligodendrocytes in a dose-responsive fashion

Compound: CN1CCC[C@@H]1CCO[C@](C)(c1ccccc1)c1ccc(Cl)cc1 [clemastine, Clemastine]
- formation of MBP+ oligodendrocytes in combination with ketoconazole ([1]; 72 h): did not enhance differentiation above levels seen for ketoconazole alone

Compound: CC(=O)N1CCN(c2ccc(OC[C@H]3CO[C@@](Cn4ccnc4)(c4ccc(Cl)cc4Cl)O3)cc2)CC1 (stereo in doubt) [S-trans-Ketoconazole]
- inhibition of mammalian CYP51 in vitro [5]: strikingly less effective at inhibiting mammalian CYP51

Compound: CN(C)CCOc1ccc(/C(=C(/CCCl)c2ccccc2)c2ccccc2)cc1 [toremifene, Toremifene]
- formation of MBP+ oligodendrocytes from OPCs [1, 6]: enhanced MBP^+ oligodendrocyte generation over a wide dose range
- accumulation of sterol intermediates in OPCs (enzyme inhibition in OPCs, e.g. EBP) ([2]; 24 h treatment): inhibited EBP

Compound: CC(C)CCC[C@@H](C)[C@H]1CC[C@H]2[C@@H]3CC=C4C[C@@H](O)CC[C@]4(C)[C@H]3CC[C@]12C [cholesterol, Cholesterol]
- formation of MBP+ oligodendrocytes from OPCs [1, 6]: ineffective; also recorded: had no effect on OPCs

Compound: OC(Cn1cncn1)(Cn1cncn1)c1ccc(F)cc1F [fluconazole, Fluconazole]
- inhibition of mammalian CYP51 in vitro [5]: did not inhibit mammalian CYP51 in vitro

Compound: C=CCN(C)CCCCCCOc1ccc(C(=O)c2ccc(Br)cc2)c(F)c1 [Ro 48-8071]
- formation of MBP+ oligodendrocytes from OPCs [1, 6]: little impact
- total cell number (DAPI+ nuclei) ([1]; 3 d differentiation assay): little impact
- formation of MBP+ oligodendrocytes in combination with ketoconazole ([1]; 72 h): completely suppressed ketoconazole's pro-myelinating effects
- reduction in lanosterol levels relative to ketoconazole alone ([2]; co-treatment ketoconazole 2.5 μM + Ro 48-8071 11 nM, 24 h): 90%

Source: patent US12102644B2, “Compounds and methods of promoting myelination” (Case Western Reserve University, priority 2019, dated 2024)
